The source of these data is publication PMC3214660 (Cancer prevention research (Philadelphia, Pa.), 2011).

The test system of one series is COX-2 in RAW264.7 cells. It is filed as cell-based, murine.
The next series concerns the target T1, mCOX-2 (Mus musculus, UniProt Q05769).
T1 sequence (Q05769 18-604): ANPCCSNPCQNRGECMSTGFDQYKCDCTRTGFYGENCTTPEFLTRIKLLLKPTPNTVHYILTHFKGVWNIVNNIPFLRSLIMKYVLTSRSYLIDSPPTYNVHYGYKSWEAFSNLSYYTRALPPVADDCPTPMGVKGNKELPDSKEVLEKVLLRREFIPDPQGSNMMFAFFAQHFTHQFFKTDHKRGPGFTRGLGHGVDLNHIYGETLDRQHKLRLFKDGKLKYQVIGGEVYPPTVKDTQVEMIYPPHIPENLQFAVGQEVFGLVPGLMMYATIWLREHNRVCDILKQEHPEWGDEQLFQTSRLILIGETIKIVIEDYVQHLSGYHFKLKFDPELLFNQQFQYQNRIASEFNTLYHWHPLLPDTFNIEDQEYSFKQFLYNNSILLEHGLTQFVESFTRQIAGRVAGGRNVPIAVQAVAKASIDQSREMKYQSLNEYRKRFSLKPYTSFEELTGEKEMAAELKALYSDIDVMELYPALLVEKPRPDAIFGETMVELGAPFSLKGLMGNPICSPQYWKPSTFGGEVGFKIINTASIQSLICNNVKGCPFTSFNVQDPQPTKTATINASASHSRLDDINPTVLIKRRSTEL
Nature of the series: Enzyme-inhibitor binding kinetics, time-dependent inhibition of purified mCOX-2. The class given is biochemical. The settings on record: mCOX-2, time-dependent inhibition.

A short description of series [1]: Tissue analysis for defluorination in rat footpads. The class given is in vivo, Sprague-Dawley rats. The settings on record: compound 7 1 mg/kg i.p., 2 hours post dosing.

In the case of `Cc1ccc(-c2cc(CF)nn2-c2ccc(S(N)(=O)=O)cc2)cc1` [Compound 7], the “Inhibition of COX-2 in intact RAW264.7 cells, in words” value with COX-2 in RAW264.7 cells (activated RAW264.7 cells, prostaglandin production) is on record as “low nanomolar range”. Also, on mCOX-2, the “dissociation rate k−2” value came to 0.0003 s⁻¹ and the “inactivation rate k2” value was 0.035 s⁻¹. For the same compound, the “KI, equilibrium constant for initial association (k−1/k1)” value at mCOX-2 (37 °C) turned out to be 7300 ± 1600 nM. Also, the “calculated extent of defluorination” value in series [1] (rat footpad, n = 3) is recorded as 8.8 ± 5.0%. In addition, the “amount in inflamed footpad” value in series [1] (rat, LC-MS) amounted to 486.3 pmol/g tissue.

Usually IC50 stands for the point on the concentration scale where inhibition reaches its midpoint. With `COc1ccc2c(c1)c(CC(=O)O)c(C)n2C(=O)c1ccc(Cl)cc1` [Indomethacin, reference compound], the 50% inhibitory concentration (IC50) with COX-2 in RAW264.7 cells (Mus musculus, RAW264.7, 0.5 h, read-out: RAW246.7 Cells IC50 COX-2) stood at 10 nM.
